Assay results as given in ChEMBL document CHEMBL1201862, “PubChem BioAssay data set” (2004).
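Exposure lasted 48 hours, with cells grown in 96-well plates and compounds tested at five concentrations. GI50: concentration for 50% inhibition of growth.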 Active and inactive are the calls of the source. Rule as the data show it: active = GI50 up to about 1.1 µM and inactive = higher.

Assays:
Assay in all cases: DTP human tumour cell line panel, 48 h
[1] = test system: HL-60
[2] = test system: HOP-92
[3] = test system: A498
[4] = test system: HCC 2998
[5] = test system: RXF 393
[6] = test system: NCI-H522
[7] = test system: SNB-75
[8] = test system: CAKI-1
[9] = test system: 786-0
[10] = test system: DLD-1
[11] = test system: SK-OV-3
[12] = test system: DU-145
[13] = test system: NCI/ADR-RES
[14] = test system: MDA-MB-435
[15] = test system: MDA-MB-231
[16] = test system: SR
[17] = test system: MDA-N
[18] = test system: MCF7
[19] = test system: Hs-578T
[20] = test system: PC-3

`C/C=C/C(C#N)O[Si](C)(C)C` (stereo unspecified) was tested, and the GI50 [1] was > 100 µM (inactive), the GI50 [2] was > 100 µM (inactive) and the GI50 [3] was > 100 µM (inactive). The GI50 [4] was > 100 µM (inactive), the GI50 [5] was > 100 µM (inactive) and the GI50 [6] was > 100 µM (inactive). The GI50 [7] was > 100 µM (inactive), the GI50 [8] was > 100 µM (inactive) and the GI50 [9] was > 100 µM (inactive). For the same compound, the GI50 [10] was > 100 µM (inactive) and the GI50 [11] was > 100 µM (inactive).

With `CCCCCCNC(=O)C1=C(C)NC(C)=C(C(=O)NCCCCCC)C1` the GI50 [1] was 31 µM (inactive), the GI50 [12] was > 100 µM (inactive) and the GI50 [13] was > 100 µM (inactive). The GI50 [14] was 64.7 µM (inactive), the GI50 [2] was 73.3 µM (inactive) and the GI50 [3] was > 100 µM (inactive). The GI50 [4] was > 100 µM (inactive), the GI50 [15] was > 100 µM (inactive) and the GI50 [5] was > 100 µM (inactive). The GI50 [6] was > 100 µM (inactive), the GI50 [16] was 83 µM (inactive) and the GI50 [7] was 51.9 µM (inactive). The GI50 [8] was > 100 µM (inactive), the GI50 [9] was > 100 µM (inactive) and the GI50 [11] was > 100 µM (inactive). For the same compound, the GI50 [17] was 75.5 µM (inactive), the GI50 [18] was > 100 µM (inactive) and the GI50 [19] was > 100 µM (inactive). For the same compound, the GI50 [20] was > 100 µM (inactive).

For `O=S(=O)(N/N=C/c1c(Cl)cccc1Cl)c1ccccc1`, the GI50 [1] was 29.9 µM (inactive), the GI50 [2] was > 100 µM (inactive) and the GI50 [3] was > 100 µM (inactive). The GI50 [4] was > 100 µM (inactive), the GI50 [5] was 55.5 µM (inactive) and the GI50 [16] was > 100 µM (inactive). For the same compound, the GI50 [7] was 31.3 µM (inactive), the GI50 [10] was > 100 µM (inactive) and the GI50 [11] was > 100 µM (inactive).

In the case of `Fc1cccc(CSc2ncnc3c2ncn3C2CCCS2)c1` (stereo unspecified), the GI50 [1] is reported as 8.83 µM (inactive), the GI50 [12] is reported as 17.4 µM (inactive) and the GI50 [13] is reported as 25 µM (inactive). For the same compound, the GI50 [14] was 18.5 µM (inactive), the GI50 [2] was 24.2 µM (inactive) and the GI50 [3] was 17.3 µM (inactive). The GI50 [4] was 21.9 µM (inactive), the GI50 [15] was 23 µM (inactive) and the GI50 [5] was 17.3 µM (inactive). For the same compound, the GI50 [6] was 15.1 µM (inactive), the GI50 [16] was 3.94 µM (inactive) and the GI50 [7] was 17.6 µM (inactive). The GI50 [8] was 37.1 µM (inactive), the GI50 [9] was 20.7 µM (inactive) and the GI50 [11] was 38.5 µM (inactive). The GI50 [17] was 20.8 µM (inactive), the GI50 [18] was 22 µM (inactive) and the GI50 [19] was 26.9 µM (inactive). For the same compound, the GI50 [20] was 14.5 µM (inactive).

`CC(=O)c1cccc(NC(=O)C(=O)C(C(=O)c2ccccc2F)C2OC(=O)c3ccccc32)c1` (stereo unspecified) was tested, and the GI50 [1] was 24 µM (inactive), the GI50 [2] was > 100 µM (inactive) and the GI50 [3] was 91.6 µM (inactive). The GI50 [4] was 24.1 µM (inactive), the GI50 [5] was 28.1 µM (inactive) and the GI50 [6] was 19.4 µM (inactive). For the same compound, the GI50 [16] was 9.2 µM (inactive), the GI50 [7] was 25.8 µM (inactive) and the GI50 [8] was 65.3 µM (inactive). The GI50 [10] was 45.8 µM (inactive) and the GI50 [11] was 35.4 µM (inactive).

With `COc1ccc(CCC2NCCc3cc(OC)c(OC)cc32)cc1` (stereo unspecified) the GI50 [3] was > 100 µM (inactive), the GI50 [4] was > 100 µM (inactive) and the GI50 [6] was > 100 µM (inactive). The GI50 [7] was > 100 µM (inactive), the GI50 [8] was > 100 µM (inactive) and the GI50 [9] was > 100 µM (inactive). The GI50 [10] was > 100 µM (inactive).

With `CCOC(=O)c1c(-c2ccccc2)c(C(OC(c2ccccc2)c2c(-c3ccccc3)c(C(=O)OCC)n3ccccc23)c2ccccc2)c2ccccn12` (stereo unspecified) the GI50 [1] was > 100 µM (inactive), the GI50 [4] was > 100 µM (inactive) and the GI50 [5] was > 100 µM (inactive). The GI50 [6] was > 100 µM (inactive), the GI50 [16] was > 100 µM (inactive) and the GI50 [7] was > 100 µM (inactive). The GI50 [8] was > 100 µM (inactive), the GI50 [9] was > 100 µM (inactive) and the GI50 [10] was > 100 µM (inactive). For the same compound, the GI50 [11] was > 100 µM (inactive).

In the case of `O=C(CCc1ccc(O)c(O)c1)OCCc1ccccc1`, the GI50 [1] is reported as 3.85 µM (inactive), the GI50 [12] is reported as > 100 µM (inactive) and the GI50 [13] is reported as > 100 µM (inactive). The GI50 [14] was 20.8 µM (inactive), the GI50 [2] was > 21.2 µM (inactive) and the GI50 [3] was > 100 µM (inactive). For the same compound, the GI50 [4] was > 100 µM (inactive), the GI50 [15] was 67.6 µM (inactive) and the GI50 [5] was > 67 µM (inactive). The GI50 [6] was 3.7 µM (inactive), the GI50 [16] was 17.6 µM (inactive) and the GI50 [8] was 78.3 µM (inactive). The GI50 [9] was 19.7 µM (inactive), the GI50 [11] was > 100 µM (inactive) and the GI50 [17] was 15.4 µM (inactive). For the same compound, the GI50 [18] was > 62.1 µM (inactive), the GI50 [19] was > 100 µM (inactive) and the GI50 [20] was > 100 µM (inactive).

`CC(C)(/N=N/C(C)(C)C(=O)NCCO)C(=O)NCCO` was tested, and the GI50 [1] was > 100 µM (inactive), the GI50 [12] was > 100 µM (inactive) and the GI50 [13] was > 100 µM (inactive). For the same compound, the GI50 [14] was > 100 µM (inactive), the GI50 [2] was > 100 µM (inactive) and the GI50 [3] was > 100 µM (inactive). For the same compound, the GI50 [4] was > 100 µM (inactive), the GI50 [15] was > 100 µM (inactive) and the GI50 [5] was > 100 µM (inactive). For the same compound, the GI50 [6] was 39.7 µM (inactive), the GI50 [16] was > 100 µM (inactive) and the GI50 [8] was > 100 µM (inactive). For the same compound, the GI50 [9] was > 100 µM (inactive), the GI50 [11] was > 100 µM (inactive) and the GI50 [17] was > 100 µM (inactive). The GI50 [18] was > 100 µM (inactive), the GI50 [19] was > 100 µM (inactive) and the GI50 [20] was > 100 µM (inactive).

`O=C1/C(=C/c2ccccc2)CN(C(=O)C(Cl)(Cl)Cl)C/C1=C\c1ccccc1` was tested, and the GI50 [1] was 0.159 µM (active), the GI50 [3] was 4.24 µM (inactive) and the GI50 [5] was 1.89 µM (inactive). For the same compound, the GI50 [6] was 2.13 µM (inactive), the GI50 [16] was 1.85 µM (inactive) and the GI50 [7] was 3.27 µM (inactive). For the same compound, the GI50 [9] was 2.89 µM (inactive) and the GI50 [10] was 1.96 µM (inactive).

`O=C(c1cccs1)N(C(=S)N1CCN(c2ccccc2)CC1)c1ccccc1` was tested, and the GI50 [1] was > 100 µM (inactive), the GI50 [2] was > 100 µM (inactive) and the GI50 [5] was > 100 µM (inactive). For the same compound, the GI50 [6] was > 100 µM (inactive), the GI50 [16] was > 100 µM (inactive) and the GI50 [7] was > 100 µM (inactive). The GI50 [8] was > 100 µM (inactive), the GI50 [9] was > 100 µM (inactive) and the GI50 [10] was > 100 µM (inactive). The GI50 [11] was > 100 µM (inactive).

With `CN(CCN(C)CCN(C)C(=O)Cc1ccc(Cl)c(Cl)c1)CCN1CCCC1` the GI50 [1] was 18.2 µM (inactive), the GI50 [12] was 57.3 µM (inactive) and the GI50 [13] was > 100 µM (inactive). For the same compound, the GI50 [14] was 5.68 µM (inactive), the GI50 [2] was 5.71 µM (inactive) and the GI50 [3] was 16.4 µM (inactive). The GI50 [4] was 11.7 µM (inactive), the GI50 [15] was 17.7 µM (inactive) and the GI50 [5] was 16.2 µM (inactive). The GI50 [6] was 20.6 µM (inactive), the GI50 [16] was 16.5 µM (inactive) and the GI50 [7] was 28 µM (inactive). The GI50 [8] was 35.2 µM (inactive), the GI50 [9] was 19.5 µM (inactive) and the GI50 [11] was 46.8 µM (inactive). For the same compound, the GI50 [17] was 6.85 µM (inactive), the GI50 [18] was 24.2 µM (inactive) and the GI50 [19] was 28.5 µM (inactive). For the same compound, the GI50 [20] was 34.7 µM (inactive).

In the case of `CN(C)C(=S)SCC(N)=O`, the GI50 [1] is reported as > 100 µM (inactive), the GI50 [12] is reported as > 100 µM (inactive) and the GI50 [13] is reported as > 100 µM (inactive). The GI50 [14] was > 100 µM (inactive), the GI50 [2] was > 100 µM (inactive) and the GI50 [3] was > 100 µM (inactive). For the same compound, the GI50 [4] was > 100 µM (inactive), the GI50 [15] was > 100 µM (inactive) and the GI50 [5] was > 100 µM (inactive). For the same compound, the GI50 [6] was > 100 µM (inactive), the GI50 [16] was > 100 µM (inactive) and the GI50 [7] was < 0.01 µM (active). For the same compound, the GI50 [8] was > 100 µM (inactive), the GI50 [9] was > 100 µM (inactive) and the GI50 [11] was > 100 µM (inactive). For the same compound, the GI50 [17] was > 100 µM (inactive), the GI50 [18] was > 100 µM (inactive) and the GI50 [19] was > 100 µM (inactive). For the same compound, the GI50 [20] was > 100 µM (inactive).

In the case of `CC(C)(C)c1ccc(-n2c3nc(=O)n(-c4ccccc4CO)c(=O)c-3cc3ccccc32)cc1`, the GI50 [1] is reported as 23.8 µM (inactive), the GI50 [12] is reported as 42.4 µM (inactive) and the GI50 [13] is reported as 50 µM (inactive). The GI50 [14] was 36.1 µM (inactive), the GI50 [2] was 36.8 µM (inactive) and the GI50 [3] was > 100 µM (inactive). The GI50 [4] was 38 µM (inactive), the GI50 [15] was 19.9 µM (inactive) and the GI50 [5] was 22.8 µM (inactive). The GI50 [6] was 32.7 µM (inactive), the GI50 [16] was 30.5 µM (inactive) and the GI50 [7] was 26.2 µM (inactive). The GI50 [8] was > 100 µM (inactive), the GI50 [9] was 87.1 µM (inactive) and the GI50 [17] was 22.2 µM (inactive). The GI50 [18] was 65.6 µM (inactive), the GI50 [19] was 64.3 µM (inactive) and the GI50 [20] was 39.7 µM (inactive).
